Test results taken from patent publication US11140897B2, “Liquid-core capsules for pest control” (Katz Biotech AG, priority 2015, dated 2021).

Assays:
[1] = system: Lygus rugulipennis; assay: effect on true bugs after ingesting core liquid with active substance; format: in vivo
Protocol: Experiments were conducted with Lygus rugulipennis and the liquid-core capsules according to the invention, wherein an aqueous nutrient solution having 0.5% NeemAzal® T/S (biological active substance: azadirachtin 0.1%) was present in the core of the capsules. Another experiment was conducted with the chemical active substance acetamiprid (0.01%). When they had contact with the liquid-core capsules, the true bugs used their proboscis to pierce the outer shells of the liquid-core capsules and ingest at least some of the core solution. […] The animals were subjected to a 6-hour hunger phase prior to the beginning of the experiment. […] The lengthy dwell time of the proboscis in the capsule permits this conclusion. With the imago insects, this was an average of 160 seconds, 150 seconds with the nymphs. With the imago insects, this was preceded by a mean testing period (feeling the capsule with the proboscis) of about 30 seconds.
The true bugs ceased their activity nearly entirely about 1 day after ingesting the core liquid with the active substance azadirachtin and died after 5 days, on average. The chemical active substance acetamiprid took effect a few seconds after being ingested.

[2] = system: Lygus rugulipennis; assay: olfactometer experiments for attractant effect on true bugs; format: in vivo; conditions: for true bugs running in the direction of the attractant / attracting action: attractant concentration 0.01 μg/μL (FIG. 7)
Protocol: Comparative behavior studies were conducted on the bug species Lygus rugulipennis in the olfactometer for identifying suitable attractants (odors). The attracting action of a total of 28 different concentrations of substances and substance mixtures was determined in about 380 individual tests. A result was considered purely coincidental if 50% of the animals decided in favor of an odor and 50% decided against. The odor is considered attractive if more than about 65% of the animals move towards it. […] The certainty of the evaluation increases with the number of tests and is accepted after about 10 repetitions.

[3] = system: true bugs; assay: electrophysiological examinations (electroantennography) of true bugs; conditions: higher concentration (10 μg/μL, FIG. 9)
Protocol: Electroantennography is a method for measuring the olfactory reactions of an insect by recording electrical signals on the antennae, wherein slow changes in receptor potential that are preferably recorded in the extracellular space within the insect antenna are analyzed. Complex odor mixtures may be investigated using this method. For instance, the use of electroantennography for identifying attractants for wasps is known from DE 11 2010 005 095 T5.
FIGS. 8 and 9 summarize the results of electrophysiological examinations of true bugs. Green leaf volatiles (Z)-3-hexenyl acetate, (Z)-3-hexen-1-ol, 1-hexenal, the terpenoids (E)-β-caryophyllene, methyl salicylate, ocimene, phenylacetaldehyde, nonanal, alpha-pinene, and geraniol were tested as plant odors, hexyl butyrate and (E)-2-hexenyl butyrate were tested as pheromones of insects, and a synthetic active substance mixture made of (Z)-3-hexen-1-ol, (E)-β-caryophyllene, and hexyl butyrate were tested. FIG. 8 provides the responses in female (a) and male (b) true bugs at an active substance concentration of 0.1 μg/μL. FIG. 9 provides the responses in female (a) and male (b) true bugs at an active substance concentration of 10 μg/μL.

[4] = active substance release from liquid-core capsules in two manufacturing variants (headspace sampling, GC-MS); format: physicochemical; conditions: 1 week
Protocol: The experiment was conducted in principle as in the model system described in Section D in terms of odor collection and analysis using gas chromatography with mass spectrometry coupling. The following table and FIG. 6 summarize the results of the experiment.

[5] = loss in mass of alginate model cylinders with additives in the hydrogel; format: physicochemical
Protocol: The following table summarizes the absolute losses in mass for alginate model cylinders (d=13 mm, h=13 mm) after 240 minutes, with the addition of various additives in their most suitable concentrations and the relative losses in mass compared to the losses in mass of the standard specimen without the additives (MCC—microcrystalline cellulose, EC—ethyl cellulose).

[6] = core: nutrient solution with 0.5% NeemAzal T/S (azadirachtin 0.1%)

Row | Structure (SMILES) | true bugs running in the direction of the attractant / attracting action [2] | change of attracting effect in increased concentrations ([2]; in vivo) | odor collected ([4]; capsules Type 1) | quantity of odor per unit of time ([4]; capsules Type 1) | odor collected ([4]; capsules Type 2) | quantity of odor per unit of time ([4]; capsules Type 2) | other results
1 | C/C(=N\C#N)N(C)Cc1ccc(Cl)nc1 [acetamiprid] |  |  |  |  |  |  | time until active substance took effect after being ingested ([1]; acetamiprid 0.01% in core): a few seconds; time to death ([1]; acetamiprid 0.01% in core, after violent quivering): a few minutes later
2 | CCCCCCCCC=O [nonanal] | about 45% | increases |  |  |  |  | attracting action ([2]; concentration 1 μg/μL): about 60%; registration by antennal chemoreceptors [3]: registered
3 | CCCCCCOC(=O)CCC [Hexyl butyrate] |  |  | 2.0% | 58.8 µg | 19.7% | 592.0 µg | attraction in olfactometer experiments ([2]; in vivo): not preferred
4 | CC/C=C\CCO [(Z)-3-hexen-1-ol] | 80% | reduced | 0.5% | 15.2 µg | 7.8% | 235.1 µg | 
5 | CCCCCCCCCCCCCCCCCC(=O)O [Stearic acid] |  |  |  |  |  |  | Loss in mass [%] after 240 min with additive (“Specimen”) ([5]; alginate model cylinders d=13 mm, h=13 mm, additive in its most suitable concentration): 6.92%; Specimen loss in mass after 240 min compared to Standard loss in mass [%] ([5]; relative to standard specimen without additive): −6.87%
6 | O=CCc1ccccc1 [phenylacetaldehyde] |  |  |  |  |  |  | registration by antennal chemoreceptors [3]: registered
7 | C=C1CC/C=C(\C)CC[C@@H]2[C@@H]1CC2(C)C [(E)-b-caryophyllene] | 80% | reduced | 6.8% | 205.2 µg | 26.0% | 781.0 µg | 
8 | C/C=C(\C)C(=O)O[C@H]1C[C@@H](OC(C)=O)[C@@]2(C(=O)OC)CO[C@H]3[C@@H](O)[C@@](C)([C@]45O[C@@]4(C)[C@H]4C[C@@H]5O[C@@H]5OC=C[C@@]54O)[C@H]4[C@]1(CO[C@]4(O)C(=O)OC)[C@@H]32 [azadirachtin] |  |  |  |  |  |  | time to death, on average [1, 6]: 5 days; time until activity ceased nearly entirely after ingesting the core liquid [1, 6]: about 1 day
